Experimental findings from patent US6465432B1, “Isolated antioxidant peptides form casein and methods for preparing, isolating, and identifying antioxidant peptides” (Kraft Food Holdings, Inc., priority 2000, dated 2002) are described below.

Holding throughout (format): biochemical
A short description of assay [1]: ABTS total antioxidative activity assay (ABTS, metmyoglobin, H2O2; absorbance at 734 nm). The procedure:
(§1) Phase I fractions of the protein hydrolysates generated with various proteases in Example 1 were analyzed for their ability to prevent accumulation of free radicals derived from 2,2′-azino-bis(3-ethylbenzthiazoline-6-sulfonic acid) (ABTS). Both total antioxidative activity and total reducing power of protein hydrolysate using ABTS and preformed ABTS radical, respectively, were used. These two model systems allowed mechanistic information of antioxidative activity of protein hydrolysates to be obtained. Furthermore, the analysis provided specific data related to whether the protein hydrolysates have the capacity of scavenging radicals in an oxidation system.
Total antioxidant assays using ABTS were performed according to Cox et al., “Biological assays for cellular transformation,” Methods in Enzymology 238:277 (1994); and Plumb et al., “Are Whole Extracts and Purified Glucosinolates from Cruciferous Vegetables Antioxidants?,” Free Rad. Res. 25:75 (1996). The assay was performed in a total volume of 1.2 ml. Twenty-five microliters of sample (Phase I hydrolysate fractions as described in Example 1 or Trolox standard (2.5 mM) (Aldrich, Milwaukee, Wis.) were combined with 100 μl of ABTS solution (2.5 mM ABTS (Sigma, St. Louis, Mo.) in PBS), 180 μl of MetMb solution (50 μM Metmyoglobin made from mixing 1:1 v/v of 100 µM myoglobin (Sigma, St. Louis, Mo.) and 100 μM Metmyoglobin (Sigma, St. Louis, Mo.); and 100 μM potassium ferricyanide (Aldrich, Milwaukee, Wis.) in PBS), and 775 μl PBS. One-hundred and 20 microliters of 10 mM H2O2 were then added. The mixture was agitated and absorbance was read at 734 nm over a period of 10-15 min.

The nature of assay [2]: Total reducing power assay using ABTS radical. The note with it: for antioxidative activity in the ABTS radical assay: HPLC-isolated fractions of Phase I, concentrations not adjusted after HPLC; for reducing power in terms of scavenging pre-formed ABTS radical: synthesized peptide 0.0832 mM, Trolox 0.0208 mM, n=5. The procedure: as §1
Total reducing power assays using ABTS radical were performed according to the methods of Pellegrini et al., “Screening of Dietary Carotenoids and Carotenoid-Rich Fruit Extracts for Antioxidant Activities Applying 2,2 ′-Azinobis(3-ethylenebenzothiazoline-6-sulfonic acid Radical Cation Decolorization Assay,” Methods in Enzymology 299:379 (1999). This assay measures antioxidant capability as reducing power in terms of scavenging pre-formed ABTS radical. Equal volumes of lOmM PBS and sample (Phase I hydrolysate fractions as described in Example 1) were combined and 2.5 times the total volume (i.e., PBS and sample combined) of a working solution of ABTS radical was added. The mixture was agitated and absorbance at 734 nm was measured after 10 minutes of incubation at […]. Acetone or PBS was used as a blank where appropriate. The working solution of ABTS radical was prepared by adding 1 volume of a ABTS radical stock solution to 80 volumes of 10 mM PBS (pH 7.0) and adding, if necessary, PBS or ABTS stock solution to adjust the absorbance to about 0.83 at 734 nm. The ABTS radical stock solution contained 2.5 mM K2S2O8 and 6.9 mM ABTS.

Assay [3] in a line: Hydroxyl radical (Fenton) assay. The conditions noted are these: synthesized peptide 0.2083 mM, Trolox 0.0521 mM; n=5; FIG. 22. On the procedure: An analysis was performed to evaluate the ability of the peptide samples (Phase I and II hydrolysate fractions as described in Example 1) to quench the hydroxyl radical. The hydroxyl radical is an exceptionally active agent that reacts nonselectively with all organic constituents of food. Consequently, it can directly initiate lipid oxidation in food systems. The capacity to quench hydroxyl radicals, therefore, should theoretically be a very important characteristics for food antioxidants.
The hydroxyl radical (Fenton) assay was performed according to the methods of Lee, B. J., et al., “Antioxidant effects of L-carnosine on liposomes and beef homogenates,” J. Food Sci. 62:931 (1997). For this assay, 945 μl buffer (0.1 M phosphate buffer, pH 7.4), 60 μl EDTA-FeCl3 solution (92 mM EDTA, 26 mM FeCI3 in 0.1 M phosphate buffer pH 7.4), 25 μl sample (Phase I and II hydrolysate fractions as described in Example 1 or Trolox standard (2.5 mM)), and 120 μl of 1 mM H2O2 were combined. To this solution, 50 μl of a deoxyribose-ascorbic acid solution (67 mM deoxyribose, 4.8 mM ascorbic acid, in 01 M phosphate buffer pH 7.4) was added, and the solution was mixed and incubateded at 37° C. for 1 hr. […] Absorbance of the solution is then read at 532 nm after cooling to room temperature. […]

The mark [4] stands for this setting: synthesized peptide 0.0832 mM, Trolox 0.0208 mM, n=5.

No end group written: not given here.

Turning to `Cc1c(C)c2c(c(C)c1O)CCC(C)(C(=O)O)O2` (centres unmarked) [Trolox, reference compound], the total antioxidative activity entry in assay [1] (Phase I of milk protein hydrolysates, FIG. 2, PBS negative control, Trolox positive control) is “typical delay of initiation or lag phase of the oxidation system”. The “time until after which oxidation was virtually totally suppressed” value in assay [1] (Trolox 0.0208 mM) is greater than 2 h.
On to “AYFYPE [fragment of alpha S1-casein (amino acid residue 158˜163) from bovine milk]”, for which, in assay [2], the “antioxidative activity in the ABTS radical assay” value is “strong antioxidative activity” and the “reducing power in terms of scavenging pre-formed ABTS radical” value (“reducing power in terms” for short) is recorded as “strong antioxidative activity”. Also, the “time within which oxidation reached maximal levels” value in assay [1] (synthesized peptide 0.0832 mM) was no more than 1.5 h. In addition, the total antioxidative activity entry in assay [1] (setting [4]) is on record as “significant (p<0.05) when compared to PBS controls”.
Turning to “Gln-Phe-Tyr [cyclic QFY] (not fully specified (bridges); printed as Gln-Phe-Tyr [cyclic QFY]; also: cyclic, kind not given here) [cyclic tripeptide, fragment of alpha S1-casein (amino acid residues 167-169) from bovine milk]”, the “capacity to quench hydroxyl radicals” value in assay [3] is “slightly stronger capacity to quench hydroxyl radicals”. In addition, in assay [2], the “antioxidative activity in the ABTS radical assay” value is “strong antioxidative activity” and the “reducing power in terms” value is recorded as “significantly (p<0.05) scavenged pre-formed ABTS radical”. The total antioxidative activity entry in assay [1] (setting [4]) is recorded as “slightly stronger antioxidative activity”.
Gln-Phe-Tyr [linear QFY]: the “capacity to quench hydroxyl radicals” value in assay [3] is “possess the capacity to quench hydroxyl radicals”. Besides, the “reducing power in terms” value in assay [2] was “significantly (p<0.05) scavenged pre-formed ABTS radical”. For the same molecule, the total antioxidative activity result in assay [1] (setting [4]) is given as “have antioxidative activity”.
Take “LAYFYPE (Bovine) [Leu-Ala-Tyr-Phe-Tyr-Pro-Glu]”: the “antioxidative activity in the ABTS radical assay” value in assay [2] was “strong antioxidative activity”.
With “RYLGYLE (Bovine) [Arg-Tyr-Leu-Gly-Tyr-Leu-Glu, fragment of alpha S1-casein (amino acid residues 105˜111) from bovine milk]”, in assay [2], the “antioxidative activity in the ABTS radical assay” value is “strong antioxidative activity” and the “reducing power in terms” value is recorded as “statistically significant when compared to PBS controls”.
For the molecule “YLGYLE [fragment of alpha S1-casein (amino acid residues 106˜111) from bovine milk]”, in assay [2], the “antioxidative activity in the ABTS radical assay” value is “strong antioxidative activity”.
